Test results published in patent publication US11918565B1, “Treatment of post-operative pain via sciatic nerve block with sustained-release liposomal anesthetic compositions” (Pacira Pharmaceuticals, Inc., priority 2022, dated 2024).
Counter-ions that a name gives are not always drawn.

Tested on: sciatic nerve (motor block) in subjects undergoing bunionectomy
Assay: Pharmacodynamics: onset and duration of motor block (foot movement), clinical trial #1 Part A
Type: in vivo, human
Method: Clinical Study #1 was a Phase 3, multicenter, randomized, double-blind, active-controlled study in 180 subjects undergoing bunionectomy. Subjects received a sciatic (in the popliteal fossa) nerve block with a single dose of either EXPAREL 266 mg (EXP266), EXPAREL 133 mg (EXP133), or 0.25% bupivacaine HCl (50 mg; BUP50). The study was conducted in two parts (Part A and Part B). Part A was to be completed and analyzed before enrollment in Part B was initiated. Part A was a 3-arm cohort with 66 subjects undergoing bunionectomy to obtain information on pharmacokinetics (PK), pharmacodynamics (PD), efficacy, and safety. Subjects were randomized (1:1:1) to the EXP266, EXP133, and BUP50 treatment arms. Part B was a 2-arm cohort with 119 subjects undergoing bunionectomy to evaluate the efficacy and safety of EXPAREL compared with bupivacaine HCl. The dose of the EXPAREL arm in Part B was determined based on the interim analysis of the Part A cohort results.
On the day of surgery, subjects received an ultrasound-guided sciatic (in the popliteal fossa) nerve block with one of the following treatments: • EXP266 arm: subjects randomized to this treatment arm received 20 mL (266 mg) EXPAREL mixed with 10 mL saline (Part A only; per interim analysis was not selected for Part B) • EXP133 arm: subjects randomized to this treatment arm received 10 mL (133 mg) EXPAREL mixed with 20 mL saline (Part A and B) • BUP50 arm: subjects randomized to this treatment arm received 20 mL (50 mg) 0.25% bupivacaine HCl mixed with 10 mL saline (Part A and B)
Efficacy assessments included pain intensity scores focused on the operative foot using the Numeric Rating Scale (NRS), total postsurgical opioid consumption in OMED, time to first opioid consumption post-surgery, and percentage of opioid-free patients through 96 hours, and worst and average NRS pain intensity scores at 24 h, 48 h, 72 h, and 96 h from end of surgery. Additionally, blood samples for pharmacokinetic (PK) analysis (area under the curve [AUC], maximum plasma concentration [Cmax], time of maximum plasma concentration [Tmax], including early and late Cmax and Tmax (EXP133-ADMIX arm only), apparent terminal elimination half-life [t1/2el], apparent clearance [CL/F], and apparent volume of distribution [Vd/F]). Pharmacodynamic (PD) assessment data, including median time to onset of sensory block and motor block, and median duration of sensory and motor block were collected.
Pharmacodynamic endpoints included: onset of sensory block, offset of sensory block, duration of sensory block, onset of motor block, offset of motor block, and duration of motor block.

CCCCN1CCCCC1C(=O)Nc1c(C)cccc1C (stereo not shown) [BUP50, bupivacaine HCl]
subjects without foot movement at the first time point with ≥50% (1 h post-dose for EXP266, 2 h post-dose for EXP133 and BUP50): 54.5%
subjects who still did not have complete foot movement (84 h post-dose): 18.2%
subjects with motor block onset observed (human, in vivo): 40.9%
first time point at which foot movement was not present in ≥50% of subjects (post-dose): 2 h
